Assay results as given in article PMC12006790 (Synthetic Biology, 2025).

How the values were obtained:
[1] = target: T1, HjCel7A (Trichoderma reesei, UniProt P62694); experiment: p-nitrophenol release, […] nm; type: biochemical; conditions: 2 mM substrate, PBS pH 7.4, 40 °C, 12 h
T1 sequence (P62694 18-513): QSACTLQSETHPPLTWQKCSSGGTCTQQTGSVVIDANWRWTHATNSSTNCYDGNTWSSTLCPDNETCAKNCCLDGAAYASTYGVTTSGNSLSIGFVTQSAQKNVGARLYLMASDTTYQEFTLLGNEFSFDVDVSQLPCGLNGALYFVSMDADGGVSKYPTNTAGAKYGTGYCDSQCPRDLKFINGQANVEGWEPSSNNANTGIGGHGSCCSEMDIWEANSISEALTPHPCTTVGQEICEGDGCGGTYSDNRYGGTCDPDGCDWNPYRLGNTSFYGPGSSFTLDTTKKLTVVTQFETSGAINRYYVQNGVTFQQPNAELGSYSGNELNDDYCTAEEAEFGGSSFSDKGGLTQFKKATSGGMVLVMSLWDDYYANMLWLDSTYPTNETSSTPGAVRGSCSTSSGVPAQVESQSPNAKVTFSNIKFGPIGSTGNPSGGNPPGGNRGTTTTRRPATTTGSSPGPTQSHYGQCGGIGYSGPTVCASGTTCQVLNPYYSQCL

[2] = target: T2, CelEdx16 (Clostridiaceae bacterium AN-C16-KBRB, UniProt E0A3Q5); experiment: p-nitrophenol release, […] nm; type: biochemical; conditions: 2 mM substrate, PBS pH 7.4, 40 °C, 12 h
T2 sequence (E0A3Q5 1-367): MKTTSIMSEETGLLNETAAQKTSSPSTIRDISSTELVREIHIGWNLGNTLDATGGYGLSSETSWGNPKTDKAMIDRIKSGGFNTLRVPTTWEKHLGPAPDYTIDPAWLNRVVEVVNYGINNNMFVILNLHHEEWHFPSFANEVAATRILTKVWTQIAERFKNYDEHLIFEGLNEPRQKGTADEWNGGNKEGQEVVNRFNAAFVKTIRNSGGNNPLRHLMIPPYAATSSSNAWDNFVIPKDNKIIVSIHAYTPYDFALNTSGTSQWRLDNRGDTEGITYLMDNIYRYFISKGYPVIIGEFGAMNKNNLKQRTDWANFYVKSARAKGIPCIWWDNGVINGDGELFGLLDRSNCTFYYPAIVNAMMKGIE

Structure (SMILES): O=[N+]([O-])c1ccc(O[C@@H]2O[C@H](CO)[C@@H](O[C@@H]3O[C@H](CO)[C@@H](O)[C@H](O)[C@H]3O)[C@H](O)[C@H]2O)cc1 [p-nitrophenyl β-D-cellobioside]
- p-nitrophenol release, 405 nm; cell-free CB-biosensor [1]: pNP assay detected significant signals for CelEdx16 and HjCel7A (CBHI)
- p-nitrophenol release, 405 nm; cell-free CB-biosensor [2]: pNP assay detected significant signals for CelEdx16 and HjCel7A (CBHI)
